Reference: US20250092064A1, “BENZOTRIAZOLE COMPOUND” (DAIICHI SANKYO COMPANY, LIMITED, priority 2022, published 2025)

How the values were obtained:
[1] = target: binding between Nrf2 and Keap1 (Homo sapiens (Human), UniProt Q14145); experiment: FP assay (in vitro): inhibition of Nrf2-Keap1 binding by fluorescence polarization; conditions: GST-fused human Keap1 (325-642) 20 nM, FITC-labeled Nrf2 peptide 10 nM, 2 hr at room temperature
[2] = system: NQO1 activity in Hepa1c1c7 cells; experiment: NAD(P)H: quinone oxidoreductase-1 (NQO1) enzyme induction assay (in vitro); assay type: cell-based, mouse; conditions: Mus musculus, Hepa-1c1c7, NQO1 activity with 400 nM test compound as a ratio from the base without compound, about 48 hr
Procedure, shortened: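 Mouse Hepa1c1c7 hepatoma cells treated 48 hr with 400 nM compound (final). NQO1 activity in lysates read by absorbance at 610 nm; value is background-subtracted activity ratio versus untreated cells.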

Sequence of binding between Nrf2 and Keap1 (Q14145 325-624 limits assumed): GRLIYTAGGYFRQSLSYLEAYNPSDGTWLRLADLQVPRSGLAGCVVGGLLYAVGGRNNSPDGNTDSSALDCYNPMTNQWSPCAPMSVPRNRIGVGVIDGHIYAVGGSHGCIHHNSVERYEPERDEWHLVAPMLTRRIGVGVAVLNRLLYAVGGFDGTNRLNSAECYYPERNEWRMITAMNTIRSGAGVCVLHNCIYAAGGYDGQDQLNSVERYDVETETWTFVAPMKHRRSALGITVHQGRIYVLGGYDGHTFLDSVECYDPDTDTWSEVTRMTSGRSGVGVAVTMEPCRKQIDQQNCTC

Row | IC50 [1] | SMILES | fold induction at 0.4 µM [2]
1 | 10 to 30 nM | Cc1c(C(CC(=O)O)c2cc3c(c(CN4CC(C)(C)Oc5ncccc5S4(=O)=O)c2)CCC3)ccc2c1nnn2C (stereo not shown) [Example 34, 3-(1,4-Dimethyl-1H-benzotriazol-5-yl)-3-{7-[(4,4-dimethyl-1,1-dioxido-3,4-dihydro-2H-pyrido[2,3-b][1,4,5]oxathiazepin-2-yl)methyl]-2,3-dihydro-1H-inden-5-yl}propanoic acid] | > 5
2 | ≤ 10 nM | CC[C@@H]1CN(Cc2cc([C@H](CC(=O)O)c3ccc4c(nnn4C)c3Cl)cc3ccsc23)[C@@H](C)c2ncccc2O1 [Example 74, (3S)-3-(4-Chloro-1-methyl-1H-benzotriazol-5-yl)-3-(7-{[(2R,5S)-2-ethyl-5-methyl-2,3-dihydropyrido[2,3-f][1,4]oxazepin-4(5H)-yl]methyl}-1-benzothiophen-5-yl)propanoic acid] | > 5
3 | 10 to 30 nM | CC[C@@H]1CN(Cc2cc(C(CC(=O)O)c3ccc4c(nnn4C)c3C)cc3c2CCC3)S(=O)(=O)c2cc(C(F)(F)F)cnc2O1 (stereo partly drawn) [Example 25, 3-(1,4-Dimethyl-1H-benzotriazol-5-yl)-3-(7-{[(4R)-4-ethyl-1,1-dioxido-8-(trifluoromethyl)-3,4-dihydro-2H-pyrido[2,3-b][1,4,5]oxathiazepin-2-yl]methyl}-2,3-dihydro-1H-inden-5-yl)propanoic acid] | > 5
4 | ≤ 10 nM | CC[C@@H]1CN(Cc2cc([C@@H](CC(=O)O)c3cc(Cl)c4c(nnn4C)c3C)cc3c2CCC3)S(=O)(=O)c2cc(Cl)cnc2O1 [Example 97, (3R)-3-(7-Chloro-1,4-dimethyl-1H-benzotriazol-5-yl)-3-(7-{[(4R)-8-chloro-4-ethyl-1,1-dioxido-3,4-dihydro-2H-pyrido[2,3-b][1,4,5]oxathiazepin-2-yl]methyl}-2,3-dihydro-1H-inden-5-yl)propanoic acid] | > 5
5 | 10 to 30 nM | CC[C@@H]1CN(Cc2cc(C(CC(=O)O)c3ccc4c(nnn4C)c3C)cc3c2OCC3)S(=O)(=O)c2cc(Cl)cnc2O1 (stereo partly drawn) [Example 91, 3-(7-{[(4R)-8-Chloro-4-ethyl-1,1-dioxido-3,4-dihydro-2H-pyrido[2,3-b][1,4,5]oxathiazepin-2-yl]methyl}-2,3-dihydro-1-benzofuran-5-yl)-3-(1,4-dimethyl-1H-benzotriazol-5-yl)propanoic acid] | > 5
6 | ≤ 10 nM | C[C@@H]1CN(Cc2cc(C(CC(=O)O)c3ccc4c(nnn4C)c3F)cc3c2CCC3)S(=O)(=O)c2ccccc2O1 (stereo partly drawn) [Example 6, 3-(4-Fluoro-1-methyl-1H-benzotriazol-5-yl)-3-(7-{[(4R)-4-methyl-1,1-dioxido-3,4-dihydro-2H-5,1,2-benzoxathiazepin-2-yl]methyl}-2,3-dihydro-1H-inden-5-yl)propanoic acid] | > 5
7 | ≤ 10 nM | CC[C@@H]1CN(Cc2cc([C@@H](CC(=O)O)c3cc(OC(F)F)c4c(nnn4C)c3C)cc3c2CCC3)S(=O)(=O)c2cc(Cl)cnc2O1 [Example 98, (3R)-3-(7-{[(4R)-8-Chloro-4-ethyl-1,1-dioxido-3,4-dihydro-2H-pyrido[2,3-b][1,4,5]oxathiazepin-2-yl]methyl}-2,3-dihydro-1H-inden-5-yl)-3-[7-(difluoromethoxy)-1,4-dimethyl-1H-benzotriazol-5-yl]propanoic acid] | > 5
8 | 30 to 100 nM | CC[C@@H]1CN(Cc2cc(C(CC(=O)O)c3cc(C4CC4)c4c(nnn4C)c3C)cc3ccsc23)S(=O)(=O)c2cc(Cl)cnc2O1 (stereo partly drawn) [Example 49, 3-(7-{[(4R)-8-Chloro-4-ethyl-1,1-dioxido-3,4-dihydro-2H-pyrido[2,3-b][1,4,5]oxathiazepin-2-yl]methyl}-1-benzothiophen-5-yl)-3-(7-cyclopropyl-1,4-dimethyl-1H-benzotriazol-5-yl)propanoic acid] | > 5
9 | 10 to 30 nM | CC[C@@H]1CN(Cc2cc(C(CC(=O)O)c3ccc4c(nnn4CC(F)(F)F)c3C)cc3ccsc23)S(=O)(=O)c2cc(Cl)cnc2O1 (stereo partly drawn) [Example 60, 3-(7-{[(4R)-8-Chloro-4-ethyl-1,1-dioxido-3,4-dihydro-2H-pyrido[2,3-b][1,4,5]oxathiazepin-2-yl]methyl}-1-benzothiophen-5-yl)-3-[4-methyl-1-(2,2,2-trifluoroethyl)-1H-benzotriazol-5-yl]propanoic acid] | > 5
10 | 30 to 100 nM | CC[C@@H]1CN(Cc2cc(C(CC(=O)O)c3ccc4c(nnn4CCN(C)C)c3C)cc3ccsc23)S(=O)(=O)c2cc(Cl)cnc2O1 (stereo partly drawn) [Example 58, 3-(7-{[(4R)-8-Chloro-4-ethyl-1,1-dioxido-3,4-dihydro-2H-pyrido[2,3-b][1,4,5]oxathiazepin-2-yl]methyl}-1-benzothiophen-5-yl)-3-{1-[2-(dimethylamino)ethyl]-4-methyl-1H-benzotriazol-5-yl}propanoic acid] | > 5
11 | ≤ 10 nM | CC[C@@H]1CN(Cc2cc([C@H](CC(=O)O)c3cc(C)c4c(nnn4C)c3C)cc3c2CCC3)[C@@H](C)c2ncccc2O1 [Example 69, (3S)-3-(7-{[(2R,5S)-2-Ethyl-5-methyl-2,3-dihydropyrido[2,3-f][1,4]oxazepin-4(5H)-yl]methyl}-2,3-dihydro-1H-inden-5-yl)-3-(1,4,7-trimethyl-1H-benzotriazol-5-yl)propanoic acid] | 3 to 5
12 | ≤ 10 nM | CC[C@@H]1CN(Cc2cc(C(CC(=O)O)c3ccc4c(nnn4C)c3C)cc3c2CCC3)S(=O)(=O)c2ccccc2O1 (stereo partly drawn) [Example 12, 3-(1,4-Dimethyl-1H-benzotriazol-5-yl)-3-(7-{[(4R)-4-ethyl-1,1-dioxido-3,4-dihydro-2H-5,1,2-benzoxathiazepin-2-yl]methyl}-2,3-dihydro-1H-inden-5-yl)propanoic acid] | > 5
13 | ≤ 10 nM | CC[C@@H]1CN(Cc2cc([C@H](CC(=O)O)c3cc(Cl)c4c(nnn4C)c3C)cc3c2CCC3)S(=O)(=O)c2cc(Cl)cnc2O1 [Example 96, (3S)-3-(7-Chloro-1,4-dimethyl-1H-benzotriazol-5-yl)-3-(7-{[(4R)-8-chloro-4-ethyl-1,1-dioxido-3,4-dihydro-2H-pyrido[2,3-b][1,4,5]oxathiazepin-2-yl]methyl}-2,3-dihydro-1H-inden-5-yl)propanoic acid] | > 5
14 | 30 to 100 nM | CC[C@@H]1CN(Cc2cc(C(CC(=O)O)c3cc(C4CC4)c4c(nnn4C)c3C)cc3ccoc23)[C@@H](C)c2ncccc2O1 (stereo partly drawn) [Example 109, 3-(7-Cyclopropyl-1,4-dimethyl-1H-benzotriazol-5-yl)-3-(7-{[(2R,5S)-2-ethyl-5-methyl-2,3-dihydropyrido[2,3-f][1,4]oxazepin-4(5H)-yl]methyl}-1-benzofuran-5-yl)propanoic acid] | > 5
15 | 30 to 100 nM | CC[C@@H]1CN(Cc2cc(C(CC(=O)O)c3ccc4c(nnn4C)c3C)cc3c2CCC3)S(=O)(=O)c2ccc3ccccc3c2O1 (stereo partly drawn) [Example 26, 3-(1,4-Dimethyl-1H-benzotriazol-5-yl)-3-(7-{[(2R)-2-ethyl-5,5-dioxido-2,3-dihydro-4H-naphtho[1,2-b][1,4,5]oxathiazepin-4-yl]methyl}-2,3-dihydro-1H-inden-5-yl)propanoic acid] | > 5
16 | ≤ 10 nM | CC[C@@H]1CN(Cc2cc([C@H](CC(=O)O)c3cc(C4CC4)c4c(nnn4C)c3C)cc3c2CCC3)[C@@H](C)c2ncccc2O1 [Example 106, (3S)-3-(7-Cyclopropyl-1,4-dimethyl-1H-benzotriazol-5-yl)-3-(7-{[(2R,5S)-2-ethyl-5-methyl-2,3-dihydropyrido[2,3-f][1,4]oxazepin-4(5H)-yl]methyl}-2,3-dihydro-1H-inden-5-yl)propanoic acid] | > 5
17 | ≤ 10 nM | CC[C@@H]1CN(Cc2cc([C@@H](CC(=O)O)c3ccc4c(nnn4C)c3C)cc3ccsc23)S(=O)(=O)c2cc(Cl)c(F)cc2O1 [Example 22, (3R)-3-(7-{[(4R)-8-Chloro-4-ethyl-7-fluoro-1,1-dioxido-3,4-dihydro-2H-5,1,2-benzoxathiazepin-2-yl]methyl}-1-benzothiophen-5-yl)-3-(1,4-dimethyl-1H-benzotriazol-5-yl)propanoic acid] | > 5
18 | ≤ 10 nM | CC[C@@H]1CN(Cc2cc([C@@H](CC(=O)O)c3cc(OC(F)(F)F)c4c(nnn4C)c3C)cc3c2CCC3)S(=O)(=O)c2cc(Cl)cnc2O1 [Example 101, (3R)-3-(7-{[(4R)-8-Chloro-4-ethyl-1,1-dioxido-3,4-dihydro-2H-pyrido[2,3-b][1,4,5]oxathiazepin-2-yl]methyl}-2,3-dihydro-1H-inden-5-yl)-3-[1,4-dimethyl-7-(trifluoromethoxy)-1H-benzotriazol-5-yl]propanoic acid] | > 5
19 | ≤ 10 nM | CC[C@@H]1CN(Cc2cc(C(CC(=O)O)c3cc(O)c4c(nnn4C)c3C)cc3ccsc23)[C@@H](C)c2ncccc2O1 (single isomer, unassigned) [Example 93, (3S*)-3-(7-{[(2R,5S)-2-Ethyl-5-methyl-2,3-dihydropyrido[2,3-f][1,4]oxazepin-4(5H)-yl]methyl}-1-benzothiophen-5-yl)-3-(7-hydroxy-1,4-dimethyl-1H-benzotriazol-5-yl)propanoic acid] | > 5
20 | ≤ 10 nM | CC[C@@H]1CN(Cc2cc([C@H](CC(=O)O)c3cc(Cl)c4c(nnn4C)c3C)cc3ccsc23)S(=O)(=O)c2cc(Cl)cnc2O1 [Example 30, (3S)-3-(7-Chloro-1,4-dimethyl-1H-benzotriazol-5-yl)-3-(7-{[(4R)-8-chloro-4-ethyl-1,1-dioxido-3,4-dihydro-2H-pyrido[2,3-b][1,4,5]oxathiazepin-2-yl]methyl}-1-benzothiophen-5-yl)propanoic acid] | 3 to 5
